The results in this text go back to PubChem BioAssay AID256 (DTP/NCI, 2004).

Where “and” joins values, the source holds several entries; their conditions need not be identical. Equal entries are not always repeated. Inconclusive results and toxic doses are left out.

The subject of this test is CD2F1 mice, L1210 leukemia ip, survival T/C. Description: NCI In Vivo Anticancer Drug Screen. Data for tumor model L1210 Leukemia (intraperitoneal) in CD2F1 (CDF1) mice. Conditions: higher = longer survival. The gist of the method:
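Implant tumor; dose compound or vehicle; measure endpoint in both groups; report treated divided by control.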

The mark [1] stands for this setting: endpoint: mean survival time, dose: 6.25 mg/kg/injection, schedule: Q01DX009 (ip), vehicle: Klucel (hydroxypropylcellulose) (HPC).
Where [2] appears, read: endpoint: mean survival time, dose: 12.5 mg/kg/injection, schedule: Q01DX009 (ip), vehicle: Klucel (hydroxypropylcellulose) (HPC).
The mark [3] stands for this setting: endpoint: mean survival time, dose: 25.0 mg/kg/injection, schedule: Q01DX009 (ip), vehicle: Klucel (hydroxypropylcellulose) (HPC).
Setting [4] is: endpoint: mean survival time, dose: 100.0 mg/kg/injection, schedule: Q01DX009 (ip), vehicle: Klucel (hydroxypropylcellulose) (HPC).
Where [5] appears, read: endpoint: mean survival time, dose: 100.0 mg/kg/injection, schedule: Q04DX003 (ip), vehicle: saline with Tween-80.
Where [6] appears, read: endpoint: mean survival time, dose: 200.0 mg/kg/injection, schedule: Q04DX003 (ip), vehicle: saline with Tween-80.
Where [7] appears, read: endpoint: mean survival time, dose: 400.0 mg/kg/injection, schedule: Q04DX003 (ip), vehicle: saline with Tween-80.
[8] abbreviates: endpoint: mean survival time, dose: 25.0 mg/kg/injection, schedule: Q01DX009 (ip), vehicle: water.
Setting [9] is: endpoint: mean survival time, dose: 50.0 mg/kg/injection, schedule: Q01DX009 (ip), vehicle: water.
Setting [10] is: endpoint: mean survival time, dose: 100.0 mg/kg/injection, schedule: Q01DX009 (ip), vehicle: water.
Where [11] appears, read: endpoint: mean survival time, dose: 100.0 mg/kg/injection, schedule: Q01DX009 (ip), vehicle: saline with Tween-80.
Where [12] appears, read: endpoint: mean survival time, dose: 200.0 mg/kg/injection, schedule: Q01DX009 (ip), vehicle: saline with Tween-80.
Setting [13] is: endpoint: mean survival time, dose: 400.0 mg/kg/injection, schedule: Q01DX009 (ip), vehicle: saline with Tween-80.

Consider `CC(=O)Nc1ncc2ccccc2c1-c1ccc(N(CCOS(=O)(=O)c2ccc(C)cc2)CCOS(=O)(=O)c2ccc(C)cc2)cc1`, for which the T/C is, setting by setting: (endpoint: mean survival time, dose: 25.0 mg/kg/injection, schedule: Q04DX003 (ip), vehicle: DMSO) 108 % of control; (endpoint: mean survival time, dose: 50.0 mg/kg/injection, schedule: Q04DX003 (ip), vehicle: DMSO) 104 % of control; (endpoint: mean survival time, dose: 100.0 mg/kg/injection, schedule: Q04DX003 (ip), vehicle: DMSO) 110 % of control; (endpoint: mean survival time, dose: 200.0 mg/kg/injection, schedule: Q04DX003 (ip), vehicle: DMSO) 116 % of control; (endpoint: mean survival time, dose: 400.0 mg/kg/injection, schedule: Q04DX003 (ip), vehicle: DMSO) 108 % of control.

On to `CC(=O)OCc1cc(=O)n(C)c2c3c4c(cc12)c(C)cc(=O)n4CO3`, for which the T/C was 100 % of control under setting [1]; 104 % of control and 112 % of control under setting [2]; 112 % of control and 114 % of control and 109 % of control under setting [3]; 119 % of control (endpoint: mean survival time, dose: 50.0 mg/kg/injection, schedule: Q01DX009 (ip), vehicle: Klucel (hydroxypropylcellulose) (HPC)); 90 % of control under setting [4].

Take `O=CC(O)C(O)C(O)C(O)C(=O)O.[NH-]CC1CCCCC1[NH-].[Pt+2]` (stereo unspecified): the T/C was 118 % of control (endpoint: mean survival time, dose: 1.88 mg/kg/injection, schedule: Q04DX003 (ip), vehicle: saline); 156 % of control (endpoint: mean survival time, dose: 7.5 mg/kg/injection, schedule: Q04DX003 (ip), vehicle: saline); 166 % of control and 253 % of control (endpoint: mean survival time, dose: 15.0 mg/kg/injection, schedule: Q04DX003 (ip), vehicle: saline); 151 % of control (endpoint: mean survival time, dose: 30.0 mg/kg/injection, schedule: Q04DX003 (ip), vehicle: saline).

For `COc1ccc(C(CO)=C(c2ccc(OC)cc2)c2ccc(OC)cc2)cc1`, the T/C under setting [5] was 103 % of control, the T/C under setting [6] is 94 % of control and the T/C under setting [7] was 95 % of control.

As for `O=C(CCl)N1c2ccccc2Sc2ccccc21`, the T/C under setting [8] is 93 % of control; the T/C under setting [9] is 91 % of control; the T/C under setting [10] is 95 % of control; the T/C (endpoint: mean survival time, dose: 200.0 mg/kg/injection, schedule: Q01DX009 (ip), vehicle: water) is 95 % of control.

As for `CCNc1nc(NCC)nc(OC)n1`, the T/C by setting is: (endpoint: mean survival time, dose: 50.0 mg/kg/injection, schedule: Q01DX009 (ip), vehicle: saline with Tween-80) 95 % of control; under setting [11], 105 % of control; under setting [5], 87 % of control; under setting [12], 103 % of control; under setting [6], 89 % of control.

Turning to `COC(=O)c1cc(Br)c(I)c([N+](=O)[O-])c1`, the T/C under setting [11] was 102 % of control; the T/C under setting [5] is 95 % of control; the T/C under setting [12] was 108 % of control; the T/C under setting [6] was 106 % of control; the T/C under setting [13] is 105 % of control; the T/C under setting [7] was 97 % of control.

On to `COc1ccc(OC)c(NC(=O)Nc2ccc(NC(C)=O)cc2)c1`, for which the T/C runs as follows: under setting [11], 91 % of control; under setting [12], 95 % of control; under setting [13], 91 % of control.

For `O=[As](O)(O)Cc1ccccc1`, the T/C runs as follows: under setting [1], 100 % of control; under setting [2], 89 % of control; under setting [3], 93 % of control.

In the case of `CCOC(=O)/C(C#N)=C1\CCc2cc(OC)ccc21`, the T/C is, setting by setting: under setting [11], 92 % of control; under setting [5], 103 % of control; under setting [12], 93 % of control; under setting [6], 92 % of control; under setting [13], 92 % of control; under setting [7], 98 % of control.

Regarding `Cc1csc(C)[n+]1C`, the T/C is, setting by setting: (endpoint: mean survival time, dose: 25.0 mg/kg/injection, schedule: Q01DX009 (ip), vehicle: saline sonified) 102 % of control; (endpoint: mean survival time, dose: 50.0 mg/kg/injection, schedule: Q01DX009 (ip), vehicle: saline sonified) 104 % of control; (endpoint: mean survival time, dose: 100.0 mg/kg/injection, schedule: Q01DX001 (ip), vehicle: saline with Tween-80) 100 % of control; (endpoint: mean survival time, dose: 100.0 mg/kg/injection, schedule: Q01DX009 (ip), vehicle: saline sonified) 98 % of control.

As to `Nc1nc(=O)n(C2OC(CO)C(O)C2O)c2nc[nH]c12` (stereo unspecified), the T/C is 98 % of control (endpoint: mean survival time, dose: 6.25 mg/kg/injection, schedule: Q01DX005 (ip), vehicle: water); 90 % of control (endpoint: mean survival time, dose: 12.5 mg/kg/injection, schedule: Q01DX005 (ip), vehicle: water); 88 % of control (endpoint: mean survival time, dose: 25.0 mg/kg/injection, schedule: Q01DX005 (ip), vehicle: water); 92 % of control and 93 % of control (endpoint: mean survival time, dose: 50.0 mg/kg/injection, schedule: Q01DX005 (ip), vehicle: water); 87 % of control and 90 % of control (endpoint: mean survival time, dose: 100.0 mg/kg/injection, schedule: Q01DX005 (ip), vehicle: water).

`CCCCSc1cc(C)nc2ccccc12`: for the setting “endpoint: mean survival time, dose: 100.0 mg/kg/injection, schedule: Q04DX002 (ip), vehicle: saline with Tween-80”, the T/C was 96 % of control.

Regarding `C=CCOc1c(C)cc(C)cc1/C=C/C`, the T/C by setting is: under setting [11], 94 % of control; under setting [12], 89 % of control.

On to `CC(C)C(=O)C(C)(C)C(=O)N1CCCC1`, for which the T/C (endpoint: mean survival time, dose: 100.0 mg/kg/injection, schedule: Q01DX009 (ip), vehicle: saline) is 92 % of control; the T/C (endpoint: mean survival time, dose: 200.0 mg/kg/injection, schedule: Q01DX009 (ip), vehicle: saline) was 103 % of control; the T/C (endpoint: mean survival time, dose: 400.0 mg/kg/injection, schedule: Q01DX009 (ip), vehicle: saline) is 91 % of control.

With `Oc1ccc(CCl)c2cccnc12`, the T/C is 102 % of control (endpoint: median survival time, dose: 12.5 mg/kg/injection, schedule: Q01DX009 (ip), vehicle: saline); 102 % of control (endpoint: median survival time, dose: 25.0 mg/kg/injection, schedule: Q01DX009 (ip), vehicle: saline); 102 % of control (endpoint: median survival time, dose: 50.0 mg/kg/injection, schedule: Q01DX009 (ip), vehicle: saline); 95 % of control (endpoint: median survival time, dose: 100.0 mg/kg/injection, schedule: Q01DX009 (ip), vehicle: saline).

Consider `[Cl][Hg][c]1ccco1`, for which the T/C was 100 % of control (endpoint: mean survival time, dose: 1.25 mg/kg/injection, schedule: Q01DX001 (ip), vehicle: Klucel (hydroxypropylcellulose) (HPC)); 96 % of control (endpoint: mean survival time, dose: 2.5 mg/kg/injection, schedule: Q01DX001 (ip), vehicle: Klucel (hydroxypropylcellulose) (HPC)); 97 % of control (endpoint: mean survival time, dose: 5.0 mg/kg/injection, schedule: Q01DX001 (ip), vehicle: Klucel (hydroxypropylcellulose) (HPC)).

As to `Cc1cc(Cl)ccc1N=Cc1ccc2c(c1)OCO2`, the T/C reads like this: (endpoint: mean survival time, dose: 100.0 mg/kg/injection, schedule: Q01DX001 (ip), vehicle: Klucel (hydroxypropylcellulose) (HPC)) 95 % of control; under setting [4], 108 % of control; (endpoint: mean survival time, dose: 200.0 mg/kg/injection, schedule: Q01DX001 (ip), vehicle: Klucel (hydroxypropylcellulose) (HPC)) 102 % of control; (endpoint: mean survival time, dose: 200.0 mg/kg/injection, schedule: Q01DX009 (ip), vehicle: Klucel (hydroxypropylcellulose) (HPC)) 105 % of control; (endpoint: mean survival time, dose: 400.0 mg/kg/injection, schedule: Q01DX001 (ip), vehicle: Klucel (hydroxypropylcellulose) (HPC)) 95 % of control; (endpoint: mean survival time, dose: 400.0 mg/kg/injection, schedule: Q01DX009 (ip), vehicle: Klucel (hydroxypropylcellulose) (HPC)) 98 % of control.

Turning to `O=C1NC(CN2CCCCC2)C(=O)NC1CN1CCCCC1` (stereo unspecified), the T/C reads like this: (endpoint: mean survival time, dose: 3.13 mg/kg/injection, schedule: Q01DX009 (ip), vehicle: water) 98 % of control; (endpoint: mean survival time, dose: 6.25 mg/kg/injection, schedule: Q01DX009 (ip), vehicle: water) 98 % of control; (endpoint: mean survival time, dose: 12.5 mg/kg/injection, schedule: Q01DX009 (ip), vehicle: water) 105 % of control; under setting [8], 103 % of control; under setting [9], 98 % of control; under setting [10], 105 % of control.

Turning to `COc1ccc2c(c1O)CNCC2O` (stereo unspecified), the T/C runs as follows: (endpoint: mean survival time, dose: 100.0 mg/kg/injection, schedule: Q01DX001 (ip), vehicle: saline) 102 % of control; (endpoint: mean survival time, dose: 200.0 mg/kg/injection, schedule: Q01DX001 (ip), vehicle: saline) 101 % of control; (endpoint: mean survival time, dose: 400.0 mg/kg/injection, schedule: Q01DX001 (ip), vehicle: saline) 101 % of control.
